Molecules are shown by their SMILES.

The mortality is the share of the test organisms that died.

Format in all cases: in vivo
Data set [1] deals with Beet Armyworm (Spodoptera exigua, LAPHEG) ("BAW"). The experiment in a line: Bioassays on BAW, 128-well diet tray assay. As to conditions: 168 h, second instar larvae, 50 μg/cm^2 on artificial diet, 25° C., five to seven days, average of eight wells, read-out: BAW % Control (or Mortality) rating. A digest of the protocol: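 One to five second-instar larvae were placed per well on artificial diet surface-treated with 50 μg/cm^2 compound from 90:10 acetone-water, dried before infestation. Trays were held at 25 °C, 14:10 light-dark, for five to seven days. Percent mortality was averaged over eight wells.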

Data set [2] deals with Corn Earworm (Helicoverpa zea, HELIZE) ("CEW"). The data set is described as follows: Bioassays on CEW, 128-well diet tray assay. The conditions noted are these: 168 h, second instar larvae, 50 μg/cm^2 on artificial diet, 25° C., five to seven days, average of eight wells, read-out: CEW % Control (or Mortality) rating. As for the experimental part:
Certain molecules disclosed in this document were tested against BAW, CEW, and CL using procedures described in the following examples. In the reporting of the results, the “BAW, CEW, & CL Rating Table” was used (See Table Section).
Bioassays on CEW were conducted using a 128-well diet tray assay. one to five second instar CEW larvae were placed in each well (3 mL) of the diet tray that had been previously filled with 1 mL of artificial diet to which 50 μg/cm^2 of the test compound (dissolved in 50 μL of 90:10 acetone-water mixture) had been applied (to each of eight wells) and then allowed to dry. Trays were covered with a clear self-adhesive cover, and held at 25° C., 14:10 light-dark for five to seven days. Percent mortality was recorded for the larvae in each well; activity in the eight wells was then averaged. The results are indicated in the table entitled “Table ABC: Biological Results” (See Table Section). Bioassays on CL

Data set [3] concerns Yellow Fever Mosquito (Aedes aegypti, AEDSAE) ("YFM"). The data set is described as follows: Bioassays on YFM, 96-well plate larval assay. The conditions noted are these: about 1 day-old larvae, from 4000 ppm DMSO master plate diluted, room temperature, scored after 3 days. A digest of the protocol: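 Compounds from 4000 ppm DMSO master plates, diluted in 90:10 water:acetone, dispensed into 96-well plates, six replicates. About 1-day-old larvae added in liver-powder water. Wells covered, held 3 days at room temperature, then scored for mortality.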

The test system of data set [4] is Cabbage Looper (Trichoplusia ni, TRIPNI) ("CL"). The data set is described as follows: Bioassays on CL, 128-well diet tray assay. The conditions noted are these: 168 h, second instar larvae, 50 μg/cm^2 on artificial diet, 25° C., five to seven days, average of eight wells, read-out: CL % Control (or Mortality) rating. The method, boiled down:
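Second-instar larvae (one to five per well) on artificial diet surface-treated with 50 μg/cm^2 compound in 90:10 acetone-water, eight wells per treatment. Held at 25° C., 14:10 light-dark for five to seven days. Percent mortality scored per well and averaged over the eight wells.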

The subject of data set [5] is Green Peach Aphid (Myzus persicae, MYZUPE) ("GPA"). The experiment in a line: Bioassays on GPA, foliar spray of infested cabbage seedlings. The conditions noted are these: 72 h, 200 ppm spray on cabbage seedlings, graded after three days, Abbott corrected % control, read-out: GPA % Control (or Mortality) rating. The method, then:
Certain molecules disclosed in this document were tested against GPA using procedures described in the following example. In the reporting of the results, the “GPA Rating Table” was used (See Table Section).
Cabbage seedlings grown in 3-inch pots, with 2-3 small (3-5 cm) true leaves, were used as test substrate. The seedlings were infested with 20-50 GPA (wingless adult and nymph stages) one day prior to chemical application. Four pots with individual seedlings were used for each treatment. Test compounds (2 mg) were dissolved in 2 mL of acetone/methanol (1:1) solvent, forming stock solutions of 1000 ppm test compound. The stock solutions were diluted 5× with 0.025% Tween 20 in water to obtain the solution at 200 ppm test compound. A hand-held aspirator-type sprayer was used for spraying a solution to both sides of […] leaves until runoff. Reference plants (solvent check) were sprayed with the diluent only containing 20% by volume of acetone/methanol (1:1) solvent. Treated plants were held in a holding room for three days at approximately 25° C. and ambient relative humidity (RH) prior to grading. Evaluation was conducted by counting the number of live aphids per plant under a microscope. Percent Control was measured by using Abbott's correction formula (W. S. Abbott, “A Method of Computing the Effectiveness of an Insecticide” J. Econ. Entomol. 18 (1925), pp. 265-267) as follows. Corrected % Control=100*(X−Y)/X • where • X=No. of live aphids on solvent check plants and • Y=No. of live aphids on treated plants

Consider `CC(C)c1ccccc1NC(=S)Nc1ccc(-c2ncn(-c3ccc(OC(F)(F)F)cc3)n2)cc1` [F3, 1-(2-isopropylphenyl)-3-(4-(1-(4-(trifluoromethoxy)phenyl)-1H-1,2,4-triazol-3-yl)phenyl)thiourea], for which the mortality at 50 µg/cm2 in data set [1] and in data set [2] was 50 to 100% in each case.
Turning to `N#Cc1ccc(NC(=S)Nc2ccc(-c3ncn(-c4ccc(OC(F)(F)F)cc4)n3)cc2)cc1` [F7, 1-(4-Cyanophenyl)-3-(4-(1-(4-(trifluoromethoxy)phenyl)-1H-1,2,4-triazol-3-yl)phenyl)thiourea], the mortality at 50 µg/cm2 in data set [1] and in data set [2] was 0% throughout.
Regarding `FC(F)(F)Oc1ccc(-n2cnc(-c3ccc(NC(=S)Nc4cnccc4C(F)(F)F)cc3)n2)cc1` [F12, 1-(4-(1-(4-(trifluoromethoxy)phenyl)-1H-1,2,4-triazol-3-yl)phenyl)-3-(4-(trifluoromethyl)pyridin-3-yl)thiourea], the mortality at 50 µg/cm2 in data set [1] and in data set [2] was 0% each time.
As for `CCOc1ccc(NC(=S)Nc2ccc(-c3ncn(-c4ccc(OC(F)(F)F)cc4)n3)cc2)cn1` [F14, 1-(6-Ethoxypyridin-3-yl)-3-(4-(1-(4-(trifluoromethoxy)phenyl)-1H-1,2,4-triazol-3-yl)phenyl)thiourea], the mortality at 50 µg/cm2 in data set [1] and in data set [2] was 0% throughout.
With `O=C(Nc1ccc(F)cc1)Nc1ccc(-c2ncn(-c3ccc(OC(F)(F)F)cc3)n2)cc1` [F17, 1-(4-fluorophenyl)-3-(4-(1-(4-(trifluoromethoxy)phenyl)-1H-1,2,4-triazol-3-yl)phenyl)urea], the mortality at 50 µg/cm2 in data set [1] and in data set [2] was 0% throughout. Moreover, the “YFM % Control (or Mortality) rating” value in data set [3] is given as “D (No activity noticed in this bioassay)”.
With `FC(F)(F)Oc1ccc(-n2cnc(-c3ccc(NC(=S)Nc4ccc5ccccc5c4)cc3)n2)cc1` [F25, 1-(Naphthalen-2-yl)-3-(4-(1-(4-(trifluoromethoxy)phenyl)-1H-1,2,4-triazol-3-yl)phenyl)thiourea], the mortality at 50 µg/cm2 in data set [1] and in data set [2] was 50 to 100% throughout.
For the compound `CSc1ccc(NC(=S)Nc2ccc(-c3ncn(-c4ccc(OC(F)(F)F)cc4)n3)cc2)cn1` [F27, 1-(6-(Methylthio)pyridin-3-yl)-3-(4-(1-(4-(trifluoromethoxy)phenyl)-1H-1,2,4-triazol-3-yl)phenyl)thiourea], the mortality at 50 µg/cm2 in data set [1] and in data set [2] was 0% in each case.
`CC(C)c1ccccc1NC(=O)NCc1ccc(-c2ncn(-c3ccc(OC(F)(F)C(F)(F)F)cc3)n2)cc1` [F34, 1-(2-isopropylphenyl)-3-(4-(1-(4-(perfluoroethoxy)phenyl)-1H-1,2,4-triazol-3-yl)benzyl)urea]: the mortality at 50 µg/cm2 in data set [1] was 0%; in data set [4] it was 50 to 100%; in data set [2], 50 to 100%.
As for `O=C(Nc1ccc(-c2ncn(-c3ccc(OC(F)(F)F)cc3)n2)cc1)Nc1ccccc1C1CC1` [F40, 1-(2-cyclopropylphenyl)-3-(4-(1-(4-(trifluoromethoxy)phenyl)-1H-1,2,4-triazol-3-yl)phenyl)urea], the mortality at 50 µg/cm2 in data set [1], in data set [4] and in data set [2] was 50 to 100% throughout.
For `COc1ccc(NC(=S)Nc2ccc(-c3ncn(-c4ccc(OC(F)(F)F)cc4)n3)cc2)c(C)c1` [F43, 1-(4-Methoxy-2-methylphenyl)-3-(4-(1-(4-(trifluoromethoxy)phenyl)-1H-1,2,4-triazol-3-yl)phenyl)thiourea], the mortality at 50 µg/cm2 in data set [1] and in data set [2] was 50 to 100% in each case.
On to `COc1ccc(NC(=S)Nc2ccc(-c3ncn(-c4ccc(OC(F)(F)F)cc4)n3)cc2)cc1` [F71, 1-(4-Methoxyphenyl)-3-(4-(1-(4-(trifluoromethoxy)phenyl)-1H-1,2,4-triazol-3-yl)phenyl)thiourea], for which the mortality at 50 µg/cm2 in data set [1] and in data set [2] was 50 to 100% throughout.
`Cc1cc(C)cc(NC(=O)NCCCc2ccc(-c3ncn(-c4ccc(OC(F)(F)F)cc4)n3)cc2)c1` [P1, 1-(3,5-Dimethylphenyl)-3-(3-(4-(1-(4-(trifluoromethoxy)phenyl)-1H-1,2,4-triazol-3-yl)phenyl)propyl)urea]: the mortality at 50 µg/cm2 in data set [1] and in data set [4] was 0% in each case. In addition, in data set [5], the mortality at 200 ppm stood at 0%. Besides, the “YFM % Control (or Mortality) rating” value in data set [3] is listed as “D (No activity noticed in this bioassay)”.
On to `CC(C)c1cccc(NC(=O)NCCCc2ccc(-c3ncn(-c4ccc(OC(F)(F)F)cc4)n3)cc2)c1` [P2, 1-(3-Isopropylphenyl)-3-(3-(4-(1-(4-(trifluoromethoxy)phenyl)-1H-1,2,4-triazol-3-yl)phenyl)propyl)urea], for which the mortality at 50 µg/cm2 in data set [1] was 0 to 50%; in data set [4], 0%. Further, the mortality at 200 ppm in data set [5] came to 0%. Also, in data set [3], the “YFM % Control (or Mortality) rating” value is on record as “D (No activity noticed in this bioassay)”.
Turning to `COc1ccc(NC(=O)NCCCc2ccc(-c3ncn(-c4ccc(OC(F)(F)F)cc4)n3)cc2)c(C)c1` [P3, 1-(4-Methoxy-2-methylphenyl)-3-(3-(4-(1-(4-(trifluoromethoxy)phenyl)-1H-1,2,4-triazol-3-yl)phenyl)propyl)urea], the mortality at 50 µg/cm2 in data set [1] and in data set [4] was 0% throughout. In data set [5], the mortality at 200 ppm came out at 0%. Besides, in data set [3], the “YFM % Control (or Mortality) rating” value was “D (No activity noticed in this bioassay)”.
For the compound `CCc1cccc(C)c1NC(=O)NCCCc1ccc(-c2ncn(-c3ccc(OC(F)(F)F)cc3)n2)cc1` [P5, 1-(2-Ethyl-6-methylphenyl)-3-(3-(4-(1-(4-(trifluoromethoxy)phenyl)-1H-1,2,4-triazol-3-yl)phenyl)propyl)urea], the mortality at 50 µg/cm2 in data set [1] and in data set [4] was 0% each time. Further, in data set [5], the mortality at 200 ppm was found to be 0%. Further, the “YFM % Control (or Mortality) rating” value in data set [3] is given as “D (No activity noticed in this bioassay)”.
Take `Cc1ccc(C(C)C)c(NC(=O)NCCCc2ccc(-c3ncn(-c4ccc(OC(F)(F)F)cc4)n3)cc2)c1` [P6, 1-(2-Isopropyl-5-methylphenyl)-3-(3-(4-(1-(4-(trifluoromethoxy)phenyl)-1H-1,2,4-triazol-3-yl)phenyl)propyl)urea]: the mortality at 50 µg/cm2 in data set [1] and in data set [4] was 50 to 100% throughout. In addition, the mortality at 200 ppm in data set [5] came out at 0%. Further, the “YFM % Control (or Mortality) rating” value in data set [3] was “A (80-100)”.
Consider `O=C(NCCCc1ccc(-c2ncn(-c3ccc(OC(F)(F)F)cc3)n2)cc1)Nc1cccc(-c2ccccc2)c1` [P7, 1-([1,1′-biphenyl]-3-yl)-3-(3-(4-(1-(4-(trifluoromethoxy)phenyl)-1H-1,2,4-triazol-3-yl)phenyl)propyl)urea], for which the mortality at 50 µg/cm2 in data set [1] and in data set [4] was 0% throughout. The mortality at 200 ppm in data set [5] worked out at 0%. For the same compound, the “YFM % Control (or Mortality) rating” value in data set [3] is on record as “D (No activity noticed in this bioassay)”.
With `O=C(NCCCc1ccc(-c2ncn(-c3ccc(OC(F)(F)F)cc3)n2)cc1)Nc1ccccc1-c1ccccc1` [P9, 1-([1,1′-Biphenyl]-2-yl)-3-(3-(4-(1-(4-(trifluoromethoxy)phenyl)-1H-1,2,4-triazol-3-yl)phenyl)propyl)urea], the figures for the mortality at 50 µg/cm2 in data set [1] and in data set [4] were 0% and 50 to 100%, respectively. In addition, the mortality at 200 ppm in data set [5] stood at 0%. For the same compound, in data set [3], the “YFM % Control (or Mortality) rating” value is listed as “B (More than 0 - Less than 80)”.

Values taken from US9445594B2, “Molecules having certain pesticidal utilities, intermediates, compositions, and processes, related thereto” (priority 2014, dated 2016).
